As usually defined, the Kd is the concentration at which binding is half-saturated. Read a high Kd as weaker binding.

Test [1] deals with T1, gp96 M738L (Homo sapiens, UniProt P14625, M742L).
T1 construct: made in house; host or cells: Escherichia coli BL21 (DE3)
Nature of the test: Surface plasmon resonance, GPM1 binding to gp96 mutant M738L. As to the method:
(§1) Human gp96 was expressed as His tag fusion protein in Escherichia coli BL21 (DE3) and purified by nickel affinity chromatography. His-tagged human gp96 was immobilized onto CM5 sensor chips using standard amine coupling2. PBS was used as a running buffer. The carboxymethyl dextran surface within one side of the flow cell was activated with a 7-min injection of a 1:1 ratio of 0.4M EDC and 0.1M NHS. The protein was coupled to the surface with a 7-min injection of gp96 diluted in 10 mM sodium acetate, pH 3.7. Remaining activated groups were blocked with a 7-min injection of 1.0M ethanolamine, pH 8.5. GPM1 compound was dissolved directly in the PBS running buffer containing 1% DMSO and injected at a flow rate of 20 μl/min at 25° C. and the binding was determined by the change in resonance units (RU). The compound concentration varied from 10 nM to 25 μM and each concentration was tested at least three times. All of the bound complexes dissociated back to baseline within a reasonable time frame. Therefore, no regeneration was required. Sensorgram was processed by subtracting the binding response recorded from the control surface, followed by subtracting an average of the buffer blank injections from the reaction spot. To determine kinetic rate constants, all data sets were fit to a simple 1:1 binding with drifting baseline model using BIAevaluation program.
(§2) The present inventors compared the dose-dependent effect of GPM1 and NC1 on the interaction of gp96 and AIMP1 using ELISA. […] The present inventors monitored the binding kinetics of GPM1 to gp96 or AIMP1 by surface plasmon resonance (SPR) using BIAcore 3000. […] To further define the GPM1 binding region of gp96 (Han, J. M., Park, S. G., Liu, B., Park, B. J., Kim, J. Y., Jin, C. H., Song, Y. W., Li, Z. & Kim, S. Am. J. Pathol. 170, 2042-2054 (2007)), the present inventors introduced point mutations at L707, V706, V712, L713, F714, Y731 and M738 that are located within AIMP1 binding region of gp96 and monitored how the mutations at these sites would affect the binding of GPM1 to gp96 using SPR method.

In test [2] the target is T2, gp96 V712A/L713A/F714Y (Homo sapiens, UniProt P14625, F718Y/L717A/V716A).
T2 construct: made in house; host or cells: Escherichia coli BL21 (DE3)
T2 sequence (P14625 22-803 V716A/L717A/F718Y): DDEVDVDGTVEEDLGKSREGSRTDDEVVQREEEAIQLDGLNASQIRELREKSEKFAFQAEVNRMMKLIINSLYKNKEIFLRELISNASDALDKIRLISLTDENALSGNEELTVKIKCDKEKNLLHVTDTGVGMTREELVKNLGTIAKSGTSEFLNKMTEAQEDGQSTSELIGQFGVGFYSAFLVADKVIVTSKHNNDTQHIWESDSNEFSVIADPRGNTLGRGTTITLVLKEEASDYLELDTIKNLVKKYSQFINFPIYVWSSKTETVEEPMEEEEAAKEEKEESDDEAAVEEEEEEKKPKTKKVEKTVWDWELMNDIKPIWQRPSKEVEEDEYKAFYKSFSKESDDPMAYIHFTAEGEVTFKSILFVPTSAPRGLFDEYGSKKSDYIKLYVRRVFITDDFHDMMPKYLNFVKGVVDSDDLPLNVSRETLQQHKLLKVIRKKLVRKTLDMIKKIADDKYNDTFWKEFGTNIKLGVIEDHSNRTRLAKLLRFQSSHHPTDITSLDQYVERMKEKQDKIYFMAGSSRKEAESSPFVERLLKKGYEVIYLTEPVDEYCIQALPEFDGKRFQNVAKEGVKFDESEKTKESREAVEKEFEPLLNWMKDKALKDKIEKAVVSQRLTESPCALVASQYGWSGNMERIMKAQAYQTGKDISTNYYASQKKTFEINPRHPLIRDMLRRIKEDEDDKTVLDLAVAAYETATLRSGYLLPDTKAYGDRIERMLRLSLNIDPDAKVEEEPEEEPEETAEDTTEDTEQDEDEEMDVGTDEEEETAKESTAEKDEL
Nature of the test: Surface plasmon resonance, GPM1 binding to gp96 mutant V712A/L713A/F714Y. As to the method: as §1, §2
For orientation: Surface plasmon resonance follows binding to a sensor surface in real time, without labels.

T1 sequence (P14625 22-803 M742L): as the sequence (P14625 22-803 V716A/L717A/F718Y) above, with A695V, A696L, Y697F, M721L counted along it

With `COC(=O)[C@@H](Oc1nc(OC)cc(OC)n1)C(C)C` [GPM1, (S)-methyl 2-(4,6-dimethoxypyrimidin-2-yloxy)-3-methylbutanoate], the Kd in test [1] turned out to be 0.21 µM; in test [2], 21.9 µM. The “koff (dissociation rate constant)” value in test [1] turned out to be 0.0132 s⁻¹; in test [2], 0.0142 s⁻¹. For the same molecule, the kon in test [1] (read-out: Ka) was determined as 63000 M⁻¹ s⁻¹; in test [2] (read-out: Ka), 650 M⁻¹ s⁻¹.

Source of the values: patent publication US9573907B2, “2, 4-pyrimidine derivatives and use thereof” (SNU R&DB FOUNDATION, priority 2009, dated 2017).
